# Data from PMC12016531 (Applied and Environmental Microbiology, 2025).
# Columns and labels:
# [1] = system: L. monocytogenes ATCC 19115; test: MIC/MBC microdilution; assay type: cell-based, Listeria monocytogenes; settings: lowest concentration that killed 99.9%; TSB-YE; highest concentration 100 µM
# [2] = system: L. monocytogenes ATCC 15313; test: MIC/MBC microdilution; assay type: cell-based, Listeria monocytogenes; settings: lowest concentration that killed 99.9%; TSB-YE; highest concentration 100 µM
# [3] = system: L. monocytogenes ATCC 19113; test: MIC/MBC microdilution; assay type: cell-based, Listeria monocytogenes; settings: lowest concentration that killed 99.9%; TSB-YE; highest concentration 100 µM
# [4] = system: L. monocytogenes ATCC BAA-751; test: MIC/MBC microdilution; assay type: cell-based, Listeria monocytogenes; settings: lowest concentration that killed 99.9%; TSB-YE; highest concentration 100 µM
# [5] = system: L. monocytogenes ATCC 19111; test: MIC/MBC microdilution; assay type: cell-based, Listeria monocytogenes; settings: lowest concentration that killed 99.9%; TSB-YE; highest concentration 100 µM
# [6] = system: B. cereus CMCC63301; test: Potassium release and SEM (cell membrane damage); assay type: cell-based, Bacillus cereus; settings: potassium release 1×, 2×, 4× MIC, 1 h; SEM 2× and 4× MIC, 3 h, 30°C
# Method: The amount of potassium released was measured using a HI96750 Potassium Photometer.
# Bacillus cereus CMCC63301 and L. monocytogenes ATCC19111 were grown in TSB medium to an OD600 of 0.3. […] The cells were harvested after centrifugation (6,000 × g, 10 min), washed with PBS buffer thrice, and fixed with 2.5% (vol/vol) glutaraldehyde for 12 h at 4°C. Subsequently, the cells were subjected to gradient dehydration for 10 min, treated with isoamyl acetate for 10 min, dried with a lyophilizer for 12 h, coated with gold-palladium, and observed using a Zeiss Gemini360 instrument ([18]).
# [7] = system: all tested gram-negative strains; test: MIC/MBC microdilution, summary over gram-negative strains; assay type: cell-based; settings: up to 100 µM
# Method: The microdilution method ([25]) was used to measure the MIC of mycoidesin against indicator strains (Table S2). HPLC-purified mycoidesin was weighed and dissolved in a liquid culture medium to prepare various concentrations of mycoidesin (200.00, 100.00, 50.00, 25.00, 12.50, 6.25, 3.13, 1.56, 0.78, 0.39, 0.20, and 0.10 µM). A volume of 50 µL of different concentrations of mycoidesin solutions and 50 µL culture (1 × 10^6 CFU/mL) of the indicator strain were mixed in 96-well plates. The final concentrations of mycoidesin were 100.00, 50.00, 25.00, 12.50, 6.25, 3.13, 1.56, 0.78, 0.39, 0.20, 0.10, and 0.05 µM. […] The minimum bactericidal concentration (MBC) was the lowest concentration that killed 99.9% of the bacterial population. Nisin A was purified (Cayman Chemical, USA) as previously described ([26]) and was used to measure and compare the MIC values of L. monocytogenes strains and mycoidesin.
# [8] = system: L. monocytogenes LM605; test: MIC/MBC microdilution; assay type: cell-based, Listeria monocytogenes; settings: lowest concentration that killed 99.9%; TSB-YE; highest concentration 100 µM
# [9] = system: L. monocytogenes ATCC 13932; test: MIC/MBC microdilution; assay type: cell-based, Listeria monocytogenes; settings: lowest concentration that killed 99.9%; TSB-YE; highest concentration 100 µM
# [10] = system: Bacillus cereus CMCC63301; test: Intracellular accumulation of UDP-MurNAc-pentapeptide; assay type: cell-based; settings: mycoidesin 1× and 2× MIC, vancomycin 10× MIC; 60 min; chloramphenicol 130 µg/mL pre-incubation 15 min; HPLC, MS
# Method: (§1) Bacillus cereus CMCC63301 and L. monocytogenes ATCC19111 were grown to an OD600 of 0.3 and incubated with chloramphenicol (130 µg/mL) for 15 min. Mycoidesin (1× and 2× MIC) and vancomycin (10× MIC; positive control) were added and incubated for 60 min. The cells were collected, added to boiling water, treated for 15 min, centrifuged, and the supernatant was lyophilized. The intracellular accumulation of the peptidoglycan precursor UDP-MurNAc-pentapeptide was analyzed using HPLC (Hypersil ODS column) and identified via mass spectrometry ([27]).
# [11] = system: L. monocytogenes ATCC19111; test: as above; assay type: cell-based, Listeria monocytogenes; settings: mycoidesin 1× and 2× MIC, vancomycin 10× MIC; 60 min; chloramphenicol 130 µg/mL pre-incubation 15 min; HPLC, MS
# Method: as §1
structure (smiles),measurement,setting,value
C/C=C1\NC(=O)CNC(=O)[C@H](CCSC)NC(=O)[C@@H]2CS[C@@H](C)[C@@H](NC(=O)[C@@H]3CSC[C@@H](NC(=O)[C@H](CC(C)C)NC(=O)[C@H](CC(N)=O)NC(=O)[C@@H](N)Cc4ccc(O)cc4)C(=O)N[C@@H](C)C(=O)N[C@@H](C)C(=O)N[C@@H]([C@@H](C)CC)C(=O)N[C@@H](C)C(=O)N[C@@H](CC(=O)O)C(=O)N[C@@H](C)C(=O)N[C@@H](C)C(=O)NCC(=O)N[C@@H](CC(C)C)C(=O)N[C@@H](CCCCN)C(=O)NCC(=O)N[C@@H](CC(N)=O)C(=O)N[C@@H](Cc4ccc(O)cc4)C(=O)NCC(=O)N[C@@H](CCCCN)C(=O)N[C@@H](Cc4ccccc4)C(=O)N3)C(=O)N[C@@H](Cc3ccc(O)cc3)C(=O)N[C@H](CSC[C@@H](C(=O)NCC(=O)N[C@@H](CO)C(=O)O)NC(=O)[C@H](CO)NC(=O)[C@H](C(C)C)NC1=O)C(=O)N[C@@H](C)C(=O)N[C@@H](CCC(=O)O)C(=O)N2 [mycoidesin],MBC,[1],NA (No activity was detected even at the highest concentration of mycoidesin (100 µM))
same,MBC,[2],NA (No activity was detected even at the highest concentration of mycoidesin (100 µM))
same,MBC,[3],NA (No activity was detected even at the highest concentration of mycoidesin (100 µM))
same,MBC,[4],NA (No activity was detected even at the highest concentration of mycoidesin (100 µM))
same,MBC,[5],NA (No activity was detected even at the highest concentration of mycoidesin (100 µM))
same,cell membrane damage,[6],caused damage to the cell membrane
same,antimicrobial activity,[7],no antimicrobial activity
same,MBC,[8],NA (No activity was detected even at the highest concentration of mycoidesin (100 µM))
same,MBC,[9],NA (No activity was detected even at the highest concentration of mycoidesin (100 µM))
same,Intracellular accumulation of UDP-MurNAc-pentapeptide,[10],observed
same,Intracellular accumulation of UDP-MurNAc-pentapeptide,[11],observed
